Data from patent publication US20140256771A1, “COMPOUNDS THAT MODULATE INTRACELLULAR CALCIUM” (CalciMedica, Inc., priority 2011, published 2014).
Like-named read-outs stand apart in the source and are kept apart here.

What was measured:
[1] = biological target: T1, Orai1/STIM1 (Homo sapiens, UniProt Q96D31); assay: Fluorescence-based assay of store-operated calcium entry in Orai1/STIM1 stable cells; assay type: cell-based; design: key to Orai1/STIM1 (IC50, μmol): A < 0.6 μmol; 0.6 μmol ≦ B ≦ 1.2 μmol; C > 1.2 μmol; — = no fit; details: HEK-293 cells stably expressing human STIM1 and Orai1, 50% inhibition of Peak-Basal fluo-4 signal; for IC50: read-out: Orai1/STIM1 (IC50, μmol)
T1 construct: expressed in transfected cells; host or cells: HEK-293
Procedure: A. Fluorescence-based Assay of Store-Operated Calcium Entry in Orai1/STIM1 Stable Cells.
Cells stably expressing recombinant human STIM1 and Orai1 are generated by transfecting a human Orai1 expression plasmid (pcDNA3.1-Orai1-cmyc) into HEK-293 cells stably overexpressing human STIM1 (Roos et al. 2005 JCB 169(3): 435-445). Colonies of cells stably expressing both STIM1 and Orai1 proteins are selected and then subcloned by limiting dilution. Cells were cultured at 37° C./6% CO2 in complete medium with 10% FBS and appropriate selection markers.
The day prior to performing the assay Orai1/STIM1 stable cells are plated in 50 μL of complete medium at 90-95% confluence in a 384 well plate. Cells are grown at 37° C./6% CO2 overnight. On the day of the assay, 1.5 μM fluo-4-AM (Invitrogen) in complete medium is added to the cells, which are then incubated for 1 hour at RT. Cells are washed once in Ca^2+-free HBSS (Hank's buffered saline solution) and 35 μl of Ca^2+-free HBSS is added to each well. Test compounds are added to wells in a 10 μL Ca^2+-free HBSS solution, prepared at 4.5× the desired final concentration, and incubated for 30 minutes at RT. The initial baseline fluorescence signal is then measured with a FLIPR^384 (Molecular Devices) plate reader. Calcium entry is initiated by adding 5 μl of 10× CaCl2 (10 mM) in HBSS, and changes in cellular fluorescence are measured with the FLIPR^384 plate reader. In each well, the magnitude of the fluorescence signal as a result of calcium entry into the cell is determined by calculating the difference between the peak fluorescence signal measured after calcium addition and the initial baseline fluorescence signal (designated Peak-Basal). IC50 values are typically calculated as the concentration that inhibited 50% of the Peak-Basal signal (Table A).

[2] = system: RBL-2H3 cells; assay: Fluorescence-based assay of store-operated calcium entry in RBL-2H3 cells; assay type: cell-based, rat; design: key to RBL-2H3 (IC50, μmol): A < 0.6 μmol; 0.6 μmol ≦ B ≦ 1.2 μmol; C > 1.2 μmol; — = no fit; details: thapsigargin store depletion, 50% inhibition of Upslope; for IC50: Rattus norvegicus, RBL-2H3, read-out: RBL-2H3 (IC50, μmol)
Procedure: B. Fluorescence-based Assay of Store-Operated Calcium Entry in RBL-2H3Cells.
RBL-2H3 cells are obtained from ATCC and maintained in complete medium with 10% FBS at 37° C./6% CO2.
The day prior to performing the assay, RBL-2H3 cells are plated in 50 μL of complete medium in a 384 well plate. Cells are grown at 37° C./6% CO2 overnight and grow to 50-60% confluence by the next day. On the assay day, 1.5 μM Fluo-4-AM dye (Invitrogen) in complete medium is added and incubated for 1 hour at RT. Cells are washed twice in Ca^2+-free HBSS buffer and 35 μL Ca^2+-free HBSS buffer is added to each well. 10 μL of a test compound prepared in a Ca^2+-free HBSS solution at 4.5× of the desired concentration is added to a well and incubated for 5 minutes at RT. 10 μL of thapsigargin prepared in a Ca^2+-free HBSS solution at 5.5× of the desired concentration (5.5 uM) is added to each well and incubated for an additional 25 minutes. The initial baseline fluorescence signal is measured with a FLIPR^384 (Molecular Devices) plate reader. 5 μL of 12× calcium in HBSS (12 mM) is added and changes in cellular fluorescence are measured with the FLIPR^384 plate reader. In each well, the change in the fluorescent signal as a function of time due to calcium entry into the cell is determined by calculating the difference between the fluorescent signal measured 7 seconds after calcium addition and the initial baseline fluorescence signal at time zero (t=0). This parameter is designated Upslope. The IC50 value is calculated as the concentration at which 50% of the Upslope is inhibited.

T1 sequence (Q96D31 whole entry): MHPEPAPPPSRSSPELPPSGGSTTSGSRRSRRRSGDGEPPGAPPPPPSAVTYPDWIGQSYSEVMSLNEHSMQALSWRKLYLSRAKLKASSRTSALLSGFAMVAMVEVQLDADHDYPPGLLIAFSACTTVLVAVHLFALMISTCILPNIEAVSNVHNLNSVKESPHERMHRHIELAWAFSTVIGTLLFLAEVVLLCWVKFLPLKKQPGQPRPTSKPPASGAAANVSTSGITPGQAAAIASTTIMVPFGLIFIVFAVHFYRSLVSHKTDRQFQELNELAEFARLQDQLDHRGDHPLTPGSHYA

Structure (SMILES) | IC50 ([1]; Table iii) [nM] | IC50 ([2]; Table iii) [nM] | IC50 ([1]; Table iv) [nM] | IC50 ([2]; Table iv) [nM] | further results
Cc1cc2c(cc1-c1ccc(NCc3ccncc3F)cc1)OC(F)(F)O2 | 600 to 1200 | < 600 |  |  | 
CCn1nc(C(F)(F)F)cc1-c1ccc(NCc2ccccc2F)cc1F | < 600 | < 600 |  |  | 
CCn1nc(C(F)(F)F)cc1-c1ccc(NC(=O)c2ccccc2F)cc1F |  |  | < 600 | < 600 | 
Cc1cccc(F)c1C(=O)Nc1ccc(-c2cn(C(F)F)nc2C)cc1 |  |  | 600 to 1200 | < 600 | 
Cc1cc2c(cc1-c1ccc(NC(=O)c3c(F)cncc3F)cc1F)OC(F)(F)O2 |  |  | > 1200 | < 600 | 
Cc1cccc(F)c1CNc1ccc(-c2cc(C(F)(F)F)nn2C)c(F)c1 | < 600 | < 600 |  |  | 
Cc1cccc(F)c1CNc1ccc(-c2nc(C(F)(F)F)sc2C)cc1 | 600 to 1200 | < 600 |  |  | 
Cn1nc(C(F)(F)F)cc1-c1ccc(NCc2c(F)cccc2F)c(F)c1 | < 600 | < 600 |  |  | 
Cc1cc(C(F)(F)F)nn1-c1ccc(NCc2c(F)cncc2F)cc1 | 600 to 1200 | < 600 |  |  | 
Cn1nc(C(F)(F)F)cc1-c1ccc(NCc2c(F)cncc2F)c(F)c1 | 600 to 1200 | < 600 |  |  | 
Cc1nc(C(F)(F)F)cn1-c1ccc(NCc2c(F)cccc2F)cc1 | < 600 | < 600 |  |  | 
Cc1nc(C(F)(F)F)cn1-c1ccc(NC(=O)c2c(F)ccc(F)c2F)cc1 |  |  | > 1200 | < 600 | 
Cc1cc2c(cc1-c1ccc(NC(=O)c3snnc3C)cc1)OC(F)(F)O2 |  |  | 600 to 1200 | < 600 | 
Cc1sc(C(F)(F)F)nc1-c1ccc(NC(=O)c2c(F)cccc2F)cc1 |  |  | < 600 | < 600 | 
Cn1nc(C(F)(F)F)cc1-c1c(F)cc(NC(=O)c2ccccc2F)cc1F |  |  | < 600 | < 600 | 
Cn1nc(C(F)(F)F)cc1-c1ccc(NCc2ccccc2F)cc1 | < 600 | < 600 |  |  | 
Cc1nn(C(F)F)cc1-c1ccc(NC(=O)c2ccccc2F)cc1F |  |  | < 600 | 600 to 1200 | 
Cn1nc(C(F)(F)F)cc1-c1c(F)cc(NCc2c(F)cccc2F)cc1F | 600 to 1200 | < 600 |  |  | 
CCn1nc(C(F)(F)F)cc1-c1ccc(NC(=O)c2c(F)cccc2F)cc1 |  |  | < 600 | < 600 | 

Structure (SMILES) | IC50 ([1]; Table iii) [nM] | IC50 ([2]; Table iii) [nM] | IC50 ([1]; Table iv) [nM] | IC50 ([2]; Table iv) [nM] | further results
Cc1nc(C(F)(F)F)cn1-c1ccc(NC(=O)c2c(F)cncc2F)cc1F |  |  | > 1200 | 600 to 1200 | 
Cc1nc(C(F)(F)F)cn1-c1ccc(NCc2c(F)ccc(F)c2F)cc1 | < 600 | < 600 |  |  | 
Cc1cc2c(cc1-c1ccc(NCc3c(F)cccc3F)cc1F)OC(F)(F)O2 | > 1200 | < 600 |  |  | 
Cc1cc2c(cc1-c1ccc(NCc3c(C)cccc3F)cc1F)OC(F)(F)O2 |  | < 600 |  |  | Orai1/STIM1 (IC50, μmol) ([1]; Table iii): Max inh. <50%
Cc1nn(C(F)F)cc1-c1ccc(NC(=O)c2c(F)cccc2F)cc1F |  |  | < 600 | < 600 | 
Cn1nc(C(F)(F)F)cc1-c1ccc(NC(=O)c2ccccc2F)c(F)c1 |  |  |  |  | Orai1/STIM1 (IC50, μmol) ([1]; Table iv): Max inh. <50%; RBL-2H3 (IC50, μmol) ([2]; Table iv): —
Cn1nc(C(F)(F)F)cc1-c1ccc(NC(=O)c2c(F)cncc2F)cc1F |  |  | < 600 | < 600 | 
Fc1ccccc1CNc1ccc(-n2nc(C(F)(F)F)cc2C(F)(F)F)cc1 | < 600 | < 600 |  |  | 
Cc1cc2c(cc1-c1ccc(NC(=O)c3ccccc3F)cc1)OC(F)(F)O2 |  |  | 600 to 1200 | < 600 | 
Cn1nc(C(F)(F)F)cc1-c1c(F)cc(NCc2ccccc2F)cc1F |  | < 600 |  |  | Orai1/STIM1 (IC50, μmol) ([1]; Table iii): Max inh. <50%
O=C(Nc1ccc(-n2nc(C(F)(F)F)cc2C(F)(F)F)cc1)c1ccncc1F |  |  | 600 to 1200 | < 600 | 
Cc1cc2c(cc1-c1ccc(NC(=O)c3c(F)cccc3F)cc1)OC(F)(F)O2 |  |  | > 1200 | < 600 | 
Cc1nnsc1C(=O)Nc1ccc(-c2cc(C(F)(F)F)nn2C)c(F)c1 |  |  | < 600 | < 600 | 
Cc1sc(C(F)(F)F)nc1-c1ccc(NCc2c(F)cccc2F)cc1 | < 600 | < 600 |  |  | 
Cc1nn(C(F)F)cc1-c1ccc(NC(=O)c2c(F)cc(F)cc2F)cc1F |  |  | < 600 | < 600 | 
Cc1cccc(F)c1CNc1ccc(-c2cn(C(F)F)nc2C)c(F)c1 | < 600 | < 600 |  |  | 
Cc1nnsc1CNc1ccc(-n2nc(C(F)(F)F)cc2C)cc1 |  |  |  |  | Orai1/STIM1 (IC50, μmol) ([1]; Table iii): —; RBL-2H3 (IC50, μmol) ([2]; Table iii): —
Cn1nc(C(F)(F)F)cc1-c1ccc(NC(=O)c2ccccc2F)cc1F |  |  | < 600 | < 600 | 
Cc1nc(C(F)(F)F)cn1-c1ccc(NC(=O)c2c(F)cc(F)cc2F)cc1 |  |  | > 1200 | < 600 | 

Structure (SMILES) | IC50 ([1]; Table iii) [nM] | IC50 ([2]; Table iii) [nM] | IC50 ([1]; Table iv) [nM] | IC50 ([2]; Table iv) [nM] | further results
CCn1nc(C(F)(F)F)cc1-c1ccc(NC(=O)c2c(F)cccc2F)cc1F |  |  | < 600 | < 600 | 
Cc1cc2c(cc1-c1ccc(NC(=O)c3ccncc3F)cc1)OC(F)(F)O2 |  |  | 600 to 1200 | < 600 | 
Cc1nn(C(F)F)cc1-c1ccc(NCc2c(F)cccc2F)cc1 | < 600 | < 600 |  |  | 
Cc1cc(C(F)(F)F)nn1-c1ccc(NC(=O)c2ccc(F)cc2F)cc1 |  |  | < 600 | < 600 | 
Fc1cnccc1CNc1ccc(-n2nc(C(F)(F)F)cc2C(F)(F)F)cc1 | 600 to 1200 | < 600 |  |  | 
Cn1nc(C(F)(F)F)cc1-c1ccc(NCc2cncc(F)c2)cc1F | 600 to 1200 | < 600 |  |  | 
Cc1nn(C(F)F)cc1-c1ccc(NC(=O)c2c(F)cccc2F)cc1 |  |  | < 600 | < 600 | 
Cc1cc2c(cc1-c1ccc(NCc3ccccc3F)cc1)OC(F)(F)O2 | > 1200 | < 600 |  |  | 
Cc1cc(C(F)(F)F)nn1-c1ccc(NC(=O)c2c(F)ccc(F)c2F)cc1 |  |  | > 1200 | < 600 | 
Cc1nn(C(F)F)cc1-c1ccc(NCc2c(F)ccc(F)c2F)cc1 | < 600 | < 600 |  |  | 
Cc1ccccc1CNc1ccc(-c2nc(C(F)(F)F)sc2C)cc1 | 600 to 1200 | < 600 |  |  | 
Cc1cnccc1C(=O)Nc1ccc(-c2cc(C(F)(F)F)nn2C)c(F)c1 |  |  | 600 to 1200 | < 600 | 
Fc1cccc(F)c1CNc1ccc(-n2nc(C(F)(F)F)cc2C(F)(F)F)cc1 | 600 to 1200 | < 600 |  |  | 
Cn1nc(C(F)(F)F)cc1-c1ccc(NC(=O)c2c(F)ccc(F)c2F)cc1 |  |  | < 600 | < 600 | 
Cc1cc(F)ccc1CNc1ccc(-c2cc(C(F)(F)F)nn2C)c(F)c1 | < 600 | < 600 |  |  | 
Cn1nc(C(F)(F)F)cc1-c1ccc(NC(=O)c2c(F)cc(F)cc2F)cc1 |  |  | < 600 | < 600 | 
Cc1nn(C(F)F)cc1-c1ccc(NC(=O)c2c(F)cc(F)cc2F)cc1 |  |  | < 600 | < 600 | 
Cn1nc(C(F)(F)F)cc1-c1ccc(NCc2c(F)cc(F)cc2F)cc1 | < 600 | < 600 |  |  | 
Cc1ccccc1C(=O)Nc1ccc(-c2cc(C(F)(F)F)nn2C)c(F)c1 |  |  | < 600 | < 600 | 
